Tests used:
[1] = background statement; cited from earlier work
[2] = solubility in sodium carbonate-deionized water solution (pH 8.0); format: physicochemical; settings: pH 8, aqueous buffer, thermodynamic from solid, pH 8.0, room temperature, read-out: solubility in water adjusted to pH 8.0 with very dilute sodium carbonate
Procedure: A BTCS such as TSC dissolves in very dilute sodium carbonate solutions. A dilute, eg 0.00001-0.001M, solution of sodium carbonate can be added, dropwise, to deionized water until the pH is 8.0 (the pH of deionized water is usually 5-6). This only takes a few drops of the very dilute sodium carbonate per, say, 50 mls of deionized water. This sodium carbonate-deionized water solution is capable of completely dissolving a large amount of TSC (around 10 mg/ml)—which is remarkable considering the hydrophobicity of the carotenoid portion of the BTCS.

[3] = dissolution in normal (isotonic) saline and other salt solutions; format: physicochemical; settings: up to several milligrams per ml added
Procedure: Large volumes (as much as 3 times the estimated blood loss) of isotonic saline (also called normal saline) are infused as a treatment for hemorrhagic shock. The isotonic saline contains 9 g NaCl per liter of water so as not to disturb the ionic strength of the plasma once it is infused into the body. […] About 50% of the TSC dissolves in normal saline no matter how much TSC is added (up to several milligrams per ml), which means that undissolved particles of TSC are still present. […] The actual composition of the stock solution can be verified using UV-visible spectroscopy. This stock solution can be added to normal saline and the TSC remains dissolved.
This method can be used to dissolve a BTCS in other types of sodium chloride solutions, as well as in solutions of other salts such as KCl, Na2SO4, lactate, etc. Several, eg 1-3 mg/ml, can be put into solution in this manner.

[4] = solubility in common organic solvents; format: physicochemical; settings: chloroform, DMSO, pyridine, methanol, acetone, glacial acetic acid
Text: Attempts were made to dissolve TSC in order to obtain a ^1H NMR spectrum. […] The TSC produced from this project was characterized by IR, UV, HPLC and elemental analyses. […] UV and HPLC were consistent with authentic TSC.^7 Elemental analyses gave satisfactory values.

[5] = diffusivity of oxygen through aqueous solutions
hemorrhaged rats [6] = assay: hemorrhagic shock in rats (Roy et al); settings: rat, in vivo
Procedure: In Roy et al, Shock 10, 213-7. (1998), hemorrhaged rats (55% blood volume) were given a bolus of trans sodium crocetinate (TSC) after the hemorrhage ended, followed by saline after another 30 minutes. […] Whole-body oxygen consumption increased in the TSC group, reaching 75% of normal resting value after about 15 minutes.

[7] = TSC by inhalation, drug in blood stream; format: in vivo, rat; settings: rats
Procedure: TSC has been given to rats via an inhalation route. Ten rats were given TSC directly into the lungs. This was done by inserting a tube into the trachea, and nebulizing 0.2 ml of TSC solution (TSC dissolved in dilute sodium carbonate solution) with about 3 to 6 mls of air. For all dosages studied (0.5-2 mg/kg), about 20% of the drug was present in the blood stream within one minute after it was given.

[8] = oral administration of TSC (gavage), drug in blood stream; format: in vivo, rat; settings: two rats, 15 to 30 minutes after being given
Text: TSC has been shown, in rats, to be absorbed into the blood stream when administered orally (via a gavage technique). […] The maximum amount absorbed orally actually occurred earlier than that time.

[9] = simulated TSC molecule surrounded with water molecules; cited from earlier work
hemorrhaged rats [10] = settings: cited from earlier work
[11] = tested on: rat model of acute hypoxia; settings: 10% oxygen air mixture, TSC given after 10 minutes; cited from earlier work
[12] = stability (aqueous solution, dry form); settings: tap, distilled, deionized water

SMILES	solubility in water [1]	solubility [2]	fraction of added TSC that dissolves in normal saline [3]	solubility in most common organic solvents [4]	increase of diffusivity of oxygen through aqueous solutions [5]	oxygen consumption of rats undergoing hemorrhagic shock (hemorrhaged rats [6])	period the drug was present in the blood stream ([7]; inhalation, 0.8-1.6 mg/kg)	fraction of the drug present in the blood stream ([7]; nebulized into trachea, 0.5-2 mg/kg, within one minute)	fraction of the dosage given present in the blood stream [8]	computational increase in diffusivity [9]	whole-body oxygen consumption (hemorrhaged rats [10]; hemorrhaged rats, after about 15 minutes)	survival (hemorrhaged rats [10]; rats hemorrhaged 55% blood volume, TSC bolus after hemorrhage, saline after 30 minutes)	survival and hemodynamic stability [11]	solubility in deionized water versus normal water (solubility in water)	solubility (solubility in water; water)	stability of solutions in water [12]
CC(/C=C/C=C(\C)C(=O)O)=C\C=C\C=C(C)\C=C\C=C(/C)C(=O)O [crocetin]	only sparingly soluble in water	–	–	–	–	–	–	–	–	–	–	–	–	–	–	–
CC(/C=C/C=C(\C)C(=O)O[C@@H]1O[C@H](CO[C@@H]2O[C@H](CO)[C@@H](O)[C@H](O)[C@H]2O)[C@@H](O)[C@H](O)[C@H]1O)=C\C=C\C=C(C)\C=C\C=C(/C)C(=O)O[C@@H]1O[C@H](CO[C@@H]2O[C@H](CO)[C@@H](O)[C@H](O)[C@H]2O)[C@@H](O)[C@H](O)[C@H]1O [crocin]	significant solubility in water	–	–	–	–	–	–	–	–	–	–	–	–	–	–	–
CC(/C=C/C=C(\C)C(=O)[O-])=C\C=C\C=C(C)\C=C\C=C(/C)C(=O)[O-].[Na+].[Na+] [TSC, Trans Sodium Crocetinate]	–	~10000 µg/mL	About 50%	practically insoluble	about 30%	increase the oxygen consumption	at least two hours	about 20%	1 to 2%	~30%	75 % of normal resting value	All of the TSC-treated animals lived	all survived with good hemodynamic stability for over two hours	more soluble in deionized water	~10000 µg/mL	only stable if the pH is adjusted so as to make the solution basic

Source: US9604899B2, “Bipolar trans carotenoid salts and their uses” (Diffusion Pharmaceuticals LLC, priority 2002, dated 2017)
